Laboratory results reported in patent publication US12479879B2, “Method for preparing disodium 5′-guanylate heptahydrate crystal” (CJ CHEILJEDANG CORPORATION, priority 2019, dated 2025).
In brackets after ≈: the same amount, converted by molar mass.

Assay: Solubility of 5′-guanylic acid in aqueous sodium chloride solutions (saturated mixed solution, supernatant concentration)
Conditions: for Concentration of 5′-Guanylic acid in mixed solution: 25° C.; for 5′-Guanylic acid concentration (g/L) in mixed solution: 40° C.; for solubility thermodynamic: aqueous sodium chloride solution, saline or isotonic
[1] = sodium chloride concentration 300 g/L, supernatant of saturated solution
[2] = sodium chloride concentration 310 g/L, supernatant of saturated solution
[3] = sodium chloride concentration 350 g/L, supernatant of saturated solution
[4] = sodium chloride concentration 360 g/L, supernatant of saturated solution
[5] = sodium chloride concentration 400 g/L, sodium chloride crystals precipitated

Method: With the aqueous 5′-guanylic acid solution added to different concentrations of aqueous sodium chloride solutions at temperature 40° C. and 25° C., the solubility of 5′-guanylic acid was examined.
Specifically, the aqueous 5′-guanylic acid solution was sufficiently dissolved in each of the aqueous sodium chloride solutions at 40° C. and 25° C., respectively, to prepare saturated solutions. As a result, 160 g/L to 360 g/L saturated solution of sodium chloride were prepared. […] Then, the concentrations (g/L) of 5′-guanylic acid in supernatants obtained by centrifuging each of the saturated solutions, i.e., the mixed solutions were measured.

Concentration of 5′-Guanylic acid in mixed solution [1]: 18.1 g/L
Concentration of 5′-Guanylic acid in mixed solution [2]: 18.2 g/L
Concentration of 5′-Guanylic acid in mixed solution [3]: 18.2 g/L
Concentration of 5′-Guanylic acid in mixed solution [4]: 18.2 g/L
Concentration of 5′-Guanylic acid in mixed solution [5]: 18.3 g/L
5′-Guanylic acid concentration (g/L) in mixed solution [1]: 49.9 g/L
5′-Guanylic acid concentration (g/L) in mixed solution [2]: 49.5 g/L
5′-Guanylic acid concentration (g/L) in mixed solution [3]: 48.9 g/L
5′-Guanylic acid concentration (g/L) in mixed solution [4]: 49.8 g/L
5′-Guanylic acid concentration (g/L) in mixed solution [5]: 49.6 g/L
solubility thermodynamic (25 °C, Concentration of 5′-Guanylic acid in mixed solution (g/L), sodium chloride concentration 160 g/L, supernatant of saturated solution): 40.1 mg/mL (≈ 110 mM)
solubility thermodynamic (25 °C, Concentration of 5′-Guanylic acid in mixed solution (g/L), sodium chloride concentration 200 g/L, supernatant of saturated solution): 26.4 mg/mL (≈ 72.7 mM)
solubility thermodynamic (25 °C, Concentration of 5′-Guanylic acid in mixed solution (g/L), sodium chloride concentration 230 g/L, supernatant of saturated solution): 22.2 mg/mL (≈ 61.1 mM)
solubility thermodynamic (25 °C, Concentration of 5′-Guanylic acid in mixed solution (g/L), sodium chloride concentration 280 g/L, supernatant of saturated solution): 19.2 mg/mL (≈ 52.9 mM)
solubility thermodynamic (25 °C, Concentration of 5′-Guanylic acid in mixed solution (g/L), sodium chloride concentration 420 g/L, sodium chloride crystals precipitated): 18.2 mg/mL (≈ 50.1 mM)
solubility thermodynamic (40 °C, 5′-Guanylic acid concentration (g/L) in mixed solution, sodium chloride concentration 160 g/L, supernatant of saturated solution): 86.5 mg/mL (≈ 238 mM)
solubility thermodynamic (40 °C, 5′-Guanylic acid concentration (g/L) in mixed solution, sodium chloride concentration 200 g/L, supernatant of saturated solution): 62.7 mg/mL (≈ 173 mM)
solubility thermodynamic (40 °C, 5′-Guanylic acid concentration (g/L) in mixed solution, sodium chloride concentration 230 g/L, supernatant of saturated solution): 57.1 mg/mL (≈ 157 mM)
solubility thermodynamic (40 °C, 5′-Guanylic acid concentration (g/L) in mixed solution, sodium chloride concentration 280 g/L, supernatant of saturated solution): 50.1 mg/mL (≈ 138 mM)
solubility thermodynamic (40 °C, 5′-Guanylic acid concentration (g/L) in mixed solution, sodium chloride concentration higher than 400 g/L, sodium chloride crystals precipitated): 48.7 mg/mL (≈ 134 mM)
SMILES: Nc1nc2c(ncn2[C@@H]2O[C@H](COP(=O)(O)O)[C@@H](O)[C@H]2O)c(=O)[nH]1 [5′-Guanylic acid, 5′-guanylic acid]
